# Source: US20120108500A1, “Compositions and Methods for Modulating Immunodeficiency Virus Transcription” (priority 2010, published 2012)
# Columns and labels:
# primary CD4+ T cells = test system: primary CD4+ T cells
# Protocol: (§1) FIGS. 7A and 7B. LSD1/KDM1 is a potential drug target in HIV transcription. (A) J-Lat A2 cells were stimulated with 0.08 ng/ml of TNFα in the presence of increasing amounts of phenelzine (100, 300, 1000 or 3000 μM), DRB (0.3, 1, 3 or 10 μM) or dimethylsulfoxide (DMSO) as carrier control overnight. Numbers of GFP+ cells as well as propidium iodide (PI)-negative cells as a measure of intact cell viability were analyzed by flow cytometry. The percentage compared to DMSO-treated control cells was calculated. The average of two independent experiments is shown. (B) Purified resting primary CD4+ T cells were infected at a high multiplicity of infection (M.O.I.) with infectious HIV-NL4-3 luciferase reporter virus. Three days after infection, cells were stimulated with α-CD3 and α-CD28 antibodies in the presence of phenelzine (100, 300, or 1000 μM), DRB (1 or 10 μM) or DMSO overnight followed by analysis for luciferase activity and PI uptake.
# [1] = test system: HIV-1 NL4-3 luciferase reporter virus in primary CD4+ T cells
# Protocol: as §1
# [2] = test system: HIV transcription in J-Lat A2 cells; experiment: cells; format: cell-based; details: for effect on TNFα-mediated activation of gene expression: phenelzine 100-3000 μM, DRB 0.3-10 μM
# Protocol: Culhane et al. (2010) J Am Chem Soc 132: 3164-3176. To test the activity of this agent in HIV infection, J-Lat A2 cells were treated with increasing amounts of phenelzine or the CDK inhibitor 5,6-dichloro-1-β-D-ribofuranosyl-1H-benzimidazole (DRB), a known Tat inhibitor.
# as §1
# J-Lat A2 cells = experiment: Cell viability of J-Lat A2 cells (propidium iodide-negative cells, flow cytometry); details: at the tested concentrations
# Protocol: as §1
# [3] = biological target: C-terminal FLAG tagged Tat protein (Tat/FLAG), expressed in cells (HIV) (UniProt P04608); experiment: cell-based or functional assay
# [4] = test system: histone H3 dimethylated at lysine 4 (in purified total cellular histones)
# [5] = biological target: synthetic Tat protein (aa 1-72), K51 monomethylated (UniProt P04608)
compound,measurement,setting,value
"NNCCc1ccccc1 (racemic) [phenelzine, (±)-2-phenylethylhydrazine]",cell viability (PI uptake),primary CD4+ T cells,slight decrease in cell viability was observed in one donor
same,basal expression of luciferase,[1]; nonactivated primary T cells,suppressed the basal expression of luciferase in nonactivated cells
same,activation of luciferase expression,"[1]; primary CD4+ T cells of two donors, α-CD3/α-CD28 stimulation, phenelzine 100-1000 μM",successfully suppressed
same,suppression of HIV gene expression compared with DRB,[1]; primary T cells,more efficient in suppressing HIV gene expression than DRB
same,IC50,"[2]; Human immunodeficiency virus 1, J-Lat A2, read-out: IC50, prevention of TNFα-mediated activation of gene expression (GFP+ cells)",300 µM
same,concentrations needed relative to DRB,"[2]; J-Lat A2 cells, TNFα-stimulated",~150 fold
same,effect on TNFα-mediated activation of gene expression,[2]; J-Lat A2 cells,prevented TNFα-mediated activation of gene expression in a dose-dependent manner
same,cell toxicity (PI-negative cells),J-Lat A2 cells,No cell toxicity was observed
"OC[C@H]1O[C@@H](n2cnc3cc(Cl)c(Cl)cc32)[C@H](O)[C@@H]1O [DRB, 5,6-dichloro-1-β-D-ribofuranosyl-1H-benzimidazole]",effect on TNFα-mediated activation of gene expression,[2]; J-Lat A2 cells,prevented TNFα-mediated activation of gene expression in a dose-dependent manner
same,cell toxicity (PI-negative cells),J-Lat A2 cells,No cell toxicity was observed
endogenous LSD1/KDM1 (lysine-specific demethylase-1) in cells (from UniProt O60341 1-852) (enzyme),decrease in Tat transactivation of the HIV LTR luciferase reporter in HeLa cells after LSD1/KDM1 siRNA,[3],50%
"recombinant LSD1/KDM1 (His-tagged, prokaryotic expression)","in vitro demethylation of purified histones, western blot with α-Me2H3K4",[4],"LSD1/KDM1 also demethylated its cognate substrate, dimethyl lysine 4 in histone H3, as expected"
same,"in vitro demethylation, western blot with α-Me1K51 Tat antibodies",[5],Recombinant LSD1/KDM1 demethylated synthetic monomethylated Tat in a dose-dependent manner
